Data on one molecule can be found in paper PMC9424684, “Z1456467176 alleviates gouty arthritis by allosterically modulating P2X7R to inhibit NLRP3 inflammasome activation” (Frontiers in Pharmacology, 2022).

The target of the assay is T1, hP2X7R (purinergic receptor P2X7, P2X7R) (Homo sapiens, UniProt Q99572).
T1 construct: gene P2RX7; homotrimer
T1 sequence (Q99572 1-595): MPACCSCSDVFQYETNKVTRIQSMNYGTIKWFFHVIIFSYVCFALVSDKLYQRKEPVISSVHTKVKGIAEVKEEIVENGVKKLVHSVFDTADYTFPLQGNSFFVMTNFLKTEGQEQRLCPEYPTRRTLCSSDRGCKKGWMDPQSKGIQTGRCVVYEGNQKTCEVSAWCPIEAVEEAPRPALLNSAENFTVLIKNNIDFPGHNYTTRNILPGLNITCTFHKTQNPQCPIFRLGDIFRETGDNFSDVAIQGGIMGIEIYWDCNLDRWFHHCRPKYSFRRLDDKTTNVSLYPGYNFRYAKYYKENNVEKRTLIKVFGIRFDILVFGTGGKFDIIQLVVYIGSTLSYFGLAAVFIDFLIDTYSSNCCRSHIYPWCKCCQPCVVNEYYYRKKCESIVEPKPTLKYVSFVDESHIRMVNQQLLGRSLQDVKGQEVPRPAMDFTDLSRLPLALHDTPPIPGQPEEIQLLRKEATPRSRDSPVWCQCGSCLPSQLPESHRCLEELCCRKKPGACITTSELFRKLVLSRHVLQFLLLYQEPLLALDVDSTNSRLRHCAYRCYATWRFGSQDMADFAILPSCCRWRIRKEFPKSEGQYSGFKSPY
Kind of assay: ethidium bromide uptake (pore formation), flow cytometry, HEK-293T cells. It counts as cell-based. The note with it: read-out: EB uptake IC50. (A flow cytometer gives signals particle by particle.)

Structures are written as SMILES. Structures can show the parent of a compound that is named as a salt.

As usually defined, the IC50 is the midpoint of a concentration-inhibition curve. With `CC(Cc1cccc(C(F)(F)F)c1)C(=O)Nc1cccc(S(=O)(=O)NCCN)c1` (stereo not shown) [Z1456467176, N-{3-[(2-aminoethyl)sulfamoyl]phenyl}-2-methyl-3-[3-(trifluoromethyl)phenyl] propanamide hydrochloride], the IC50 amounted to 3.42 µM.
